Assay results: publication PMC11202002, “P18: Novel Anticancer Peptide from Induced Tumor-Suppressing Cells Targeting Breast Cancer and Bone Metastasis” (Cancers, 2024)

Experiments:
[1] = test system: peripheral blood mononuclear cells; type: cell-based, human
Experimental: (§1) Using 96-well plates with approximately 2000 cells per well, an MTT-based metabolic activity assay was performed. The cells were treated with agents and incubated for two days. On the fourth day, they were stained with 0.5 mg/mL thiazolyl blue tetrazolium bromide (M5655, Sigma). The optical density, used to assess metabolic activity, was measured at 562 nm. For the EdU-based proliferation activity assay, the cells were seeded in 96-well plates at about 1000 cells per well. A fluorescence-based cell proliferation kit (Click-iT™, EdU Alexa Fluor™ 488 Imaging Kit; Thermo Fisher, Waltham, MA, USA) was used according to the manufacturer’s instructions.

[2] = test system: RANKL-stimulated osteoclasts; assay: Osteoclast differentiation and maturation; type: cell-based; settings: 25 μg/mL
PANC1 PDAC cells = assay: MTT-based cell viability assay; settings: 25 μg/mL
Experimental: as §1

Cdc42 = assay: FRET-based GTPase activity assay; type: cell-based; settings: MDA-MB-231 cells; 25 µg/mL for 3 h
Source text: (§2) The three FRET GTPase biosensors were utilized to monitor the activities of Rac1, Cdc42, and RhoA in response to ACPs. GTPase activity was estimated based on the emission ratio of yellow fluorescent protein (YFP) to cyan fluorescent protein (CFP), using a Nikon Ti-E inverted microscope with an EMCCD camera (Photometrics, Tucson, AZ, USA), a filter wheel controller (Sutter Instruments, Novato, CA, USA), and a Nikon Perfect Focus System. To reduce photobleaching, an Intensilight fluorescence illuminator (Nikon, Tokyo, Japan) was employed with a neutral-density 32 filter (3% transmittance). The images were captured with a 40× (0.75 numerical aperture) objective, and they were scaled utilizing the color bar, as previously published.
(§3) This study next investigated the role of P18 in regulating the activity of Rho family GTPases. MDA-MB-231 breast cancer cells were transfected with Rac1, Cdc42, or RhoA biosensors and treated with P18 at a concentration of 25 µg/mL for 3 h. The GTPase activity was assessed by measuring the emission ratio of the biosensor within individual live cells.

Rac1 = assay: FRET-based GTPase activity assay; type: cell-based; settings: MDA-MB-231 cells; 25 µg/mL for 3 h
Source text: as §2, §3

RhoA = assay: FRET-based GTPase activity assay; type: cell-based; settings: MDA-MB-231 cells; 25 µg/mL for 3 h
Source text: as §2, §3

For TDYMVGSYGPR [P18], the MTT viability [1] was “did not exhibit any significant effects”, the “differentiation and maturation of RANKL-stimulated osteoclasts” value [2] was “inhibited” and the “number of multi-nucleated TRAP-positive osteoclasts (more than three nuclei)” value [2] was “significantly reduced”. For the same sequence, the MTT-based viability (PANC1 PDAC cells) was “significantly decreased”, the “Cdc42 GTPase activity (FRET biosensor emission ratio)” value (Cdc42) was “significant decrease” and the “Rac1 GTPase activity (FRET biosensor emission ratio)” value (Rac1) was “no significant change”. The “RhoA GTPase activity (FRET biosensor emission ratio)” value (RhoA) was “significant decrease”.
